From publication PMC11062899, “De novo development of small cyclic peptides that are orally bioavailable” (Nature Chemical Biology, 2023)
Values joined by “and” are separate entries in the source; they are usually repeats but may differ in a detail not shown here. Equal values may be shown once.

Assays:
[1] = Metabolic stability in rat liver microsomes (RLMs); conditions: rat, microsomes
rat α-thrombin = biological target: T1, rat α-thrombin (Rattus norvegicus, UniProt P18292); experiment: Protease inhibition, Ki for rat α-thrombin (fluorogenic substrate Z-Gly-Gly-Arg-AMC); format: biochemical; conditions: replicates R1-R3
T1 construct: rat α-thrombin (Molecular Innovations) were used at final concentrations of 2 nM and 3 nM; purchased Molecular Innovations
Procedure, shortened: (§1)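 Ki derived through Cheng–Prusoff from IC50s (four-parameter logistic fit) against activity of peptide-free controls. Product fluorescence was read every 3 min over 30 min at 25 °C, substrate Z-Gly-Gly-Arg-AMC at 50 μM. Enzyme was 2 nM human or 3 nM rat α-thrombin, pH 7.4 buffer.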

porcine pepsin = biological target: T2, porcine pepsin (Sus scrofa, UniProt P00791); experiment: Peptide stability in simulated gastric fluid (SGF); format: in vitro ADME; conditions: for SGF stability, Residual peptide Average / SGF stability, Residual peptide: after 8 h vs 0 h (TIC); for SGF stability, Residual peptide Average: average of R1-R3; for SGF stability, Residual peptide: single replicates R1-R3; for remaining at 8 h: simulated gi fluid, 37 °C, pH 1.2, read-out: Proteolytic stability: SGF (8 h) % remaining
T2 construct: 0.32 g of porcine pepsin (Sigma-Aldrich, P7125) was dissolved under gentle agitation; purchased Sigma-Aldrich P7125
T2 sequence (P00791 60-385): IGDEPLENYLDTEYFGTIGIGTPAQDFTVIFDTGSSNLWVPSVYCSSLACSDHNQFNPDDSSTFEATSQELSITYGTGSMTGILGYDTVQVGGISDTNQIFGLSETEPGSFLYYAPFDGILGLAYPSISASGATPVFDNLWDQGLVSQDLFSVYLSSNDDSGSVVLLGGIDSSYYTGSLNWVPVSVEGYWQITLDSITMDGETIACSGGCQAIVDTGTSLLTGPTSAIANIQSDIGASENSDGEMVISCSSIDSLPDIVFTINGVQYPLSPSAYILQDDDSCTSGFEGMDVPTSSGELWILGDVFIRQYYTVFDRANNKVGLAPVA
Procedure, shortened: (§2)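 Peptide from a 1 mM DMSO stock was added to fluid pre-warmed at 37 °C. SGF was pH 1.2 NaCl with porcine pepsin (0.32 g per 100 ml), and SIF was pH 6.8 potassium phosphate with porcine pancreatin (1 g per 100 ml). Supernatant peptide was quantified by LC–MS, with residual expressed as T1/T0.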

[2] = Passive artificial membrane permeability (PAMPA); conditions: for PAMPA permeability: % permeability: 50 μM, 12–18 h, acceptor concentration relative to equilibrium; for Papp at 50 μM / Permeability% Average / Permeability% R1 / Permeability% R3: PAMPA; for Papp at 50 μM: pH 7.4; for Permeability% Average: average of R1-R3; for Permeability% R1: replicate R1; for Permeability% R1 / Permeability% R3: TIC of top well sample relative to sample at theoretical equilibrium; for Permeability% R3: replicate R3
Procedure: The plate system consisted of a 96-well microwell plate (donor wells) and a 96-well insert containing a PVDF membrane coated with tri-layers of phospholipids (acceptor wells). Permeability was measured from the bottom plate (donor wells) to the top insert (acceptor wells). Cyclic peptide or reference compound solutions were prepared at a concentration of 50 μM in PBS buffer (pH 7.4) containing 5% DMSO, and 300 μl of the resulting solutions was placed into the donor wells of the PAMPA plate. Acceptor wells were prepared by adding 200 μl of PBS buffer (pH 7.4) containing 5% DMSO. The insert was stacked onto the donor plate, and the system was covered with a lid to avoid evaporation. […] Additionally, 3:2 dilutions of the 50 μM cyclic peptide stocks were prepared in PBS buffer (pH 7.4) containing 5% DMSO to yield a sample corresponding to the theoretical equilibrium between donor and acceptor wells. The samples were run on the LC–MS to measure the cyclic peptide concentration representing maximum permeability. Permeability percent was calculated using equation (4) below.4 Permeability%=PeptideAcceptor/PeptideEquilibrated×100 where [PeptideAcceptor] represents the AUC measured on the LC–MS for the acceptor wells, and [PeptideEquilibrated] represents the AUC measured for the samples diluted to the theoretical equilibrium. Detection limit for the assay was typically at 1% permeability.
Papp values were calculated using equation (5).5 Papp=VD×VA/VD+VA×A×t×−ln1−PeptideAcceptor/PeptideEquilibrated where VD and VA are the volumes of donor and acceptor wells, respectively; A is the area of the membrane; and t is the incubation time.

porcine pancreatin = experiment: Peptide stability in simulated intestinal fluid (SIF); format: in vitro ADME; conditions: after 8 h vs 0 h (TIC); for SIF stability, Residual peptide Average: average of R1-R3; for SIF stability, Residual peptide: single replicates R1-R3
Procedure, shortened: as §2

[3] = as above; format: in vitro ADME, porcine; conditions: simulated gi fluid; 8 h, 37 °C, pH 6.8; read-out: Proteolytic stability: SIF (8 h) % remaining
Procedure, shortened: as §2

human α-thrombin = human α-thrombin (Homo sapiens, UniProt P00734); experiment: Protease inhibition, Ki for human α-thrombin (fluorogenic substrate Z-Gly-Gly-Arg-AMC); format: biochemical; conditions: replicates R1-R3
Procedure, shortened: as §1

[4] = CL (ul/min/mg protein) R1, RLM CL, replicate R1
[5] = CL (ul/min/mg protein) R2, RLM CL, replicate R2
[6] = CL (ul/min/mg protein) R3, RLM CL, replicate R3
[7] = Half Life (min) R1, RLM metabolic stability, replicate R1, 0-60 min
[8] = Half Life (min) R2, RLM metabolic stability, replicate R2, 0-60 min
[9] = Half Life (min) R3, RLM metabolic stability, replicate R3, 0-60 min
[10] = Metabolic stability: Half life T1/2 (min), RLMs, mean and SD, three measurements
[11] = Metabolic stability: RLM CL (ul/min/mg), RLMs, mean and SD, three measurements
[12] = peptide 1.33E+02 uM, slope of proteolytic substrate cleavage over time

SMILES: O=C1NCCSCc2cccc(n2)CSC[C@H](NC(=O)c2ccc(Cl)s2)C(=O)N[C@@H](CO)C(=O)NCc2cccc1c2 [compound 27]
- microsomal CLint [1, 4]: 48.3 µL/min/mg
- microsomal CLint [1, 5]: 57.4 µL/min/mg
- microsomal CLint [1, 6]: 60.2 µL/min/mg
- half-life [1, 7]: 28.7 min
- half-life [1, 8]: 24.2 min
- half-life [1, 9]: 23 min
- half-life [1, 10]: 25 ± 2 min
- microsomal CLint [1, 11]: 55 ± 5 µL/min/mg
- Rat alpha thrombin inhibition, slope normalized to DMSO (rat α-thrombin; [12]): 3.9 and 4.8 and 10.9
- Rat alpha thrombin inhibition, slope normalized to DMSO (rat α-thrombin; peptide 1.67E+01 uM): 9.1 and 8.9 and 16.0
- Rat alpha thrombin inhibition, slope normalized to DMSO (rat α-thrombin; peptide 2.08E+00 uM): 42.2 and 39.9 and 27.8
- Rat alpha thrombin inhibition, slope normalized to DMSO (rat α-thrombin; peptide 3.33E+01 uM): 5.4 and 4.9 and 14.0
- Rat alpha thrombin inhibition, slope normalized to DMSO (rat α-thrombin; peptide 4.17E+00 uM): 24.5 and 25.5 and 24.4
- Rat alpha thrombin inhibition, slope normalized to DMSO (rat α-thrombin; peptide 6.67E+01 uM): 4.0 and 4.6 and 11.6
- Rat alpha thrombin inhibition, slope normalized to DMSO (rat α-thrombin; peptide 8.33E+00 uM): 18.9 and 18.5 and 19.5
- SGF stability, Residual peptide Average (porcine pepsin): 98.89
- SGF stability, Residual peptide (porcine pepsin): 99.89 and 99.67 and 97.09
- remaining at 8 h (porcine pepsin): 99 ± 2%
- PAMPA permeability: % permeability [2]: 2.5 ± 1.2%
- Papp at 50 μM [2]: 0.151 ×10⁻⁶ cm/s
- Permeability% Average [2]: 2.5%
- Permeability% R1 [2]: 3.72%
- Permeability% R3 [2]: 2.35%
- SIF stability, Residual peptide Average (porcine pancreatin): 91.64
- SIF stability, Residual peptide (porcine pancreatin): 89.51 and 84.30 and 101.11
- remaining at 8 h [3]: 92 ± 9%
- Human alpha thrombin inhibition, slope normalized to DMSO (human α-thrombin; peptide 1.02E-03 uM): 98.3 and 96.5 and 99.8
- Human alpha thrombin inhibition, slope normalized to DMSO (human α-thrombin; peptide 1.04E+00 uM): 84.1 and 76.8 and 79.3
- Human alpha thrombin inhibition, slope normalized to DMSO (human α-thrombin; peptide 1.27E-04 uM): 100.0 and 98.1 and 101.1
- Human alpha thrombin inhibition, slope normalized to DMSO (human α-thrombin; peptide 1.30E-01 uM): 95.4 and 96.3 and 96.1
- Human alpha thrombin inhibition, slope normalized to DMSO (human α-thrombin; [12]): 7.7 and 17.1 and 13.6
- Human alpha thrombin inhibition, slope normalized to DMSO (human α-thrombin; peptide 1.63E-02 uM): 97.0 and 96.5 and 98.2
- Human alpha thrombin inhibition, slope normalized to DMSO (human α-thrombin; peptide 1.67E+01 uM): 27.2 and 28.7 and 30.2
- Human alpha thrombin inhibition, slope normalized to DMSO (human α-thrombin; peptide 2.03E-03 uM): 100.7 and 96.1 and 100.3
- Human alpha thrombin inhibition, slope normalized to DMSO (human α-thrombin; peptide 2.08E+00 uM): 72.7 and 80.3 and 72.0
- Human alpha thrombin inhibition, slope normalized to DMSO (human α-thrombin; peptide 2.54E-04 uM): 101.2 and 95.7 and 100.6
- Human alpha thrombin inhibition, slope normalized to DMSO (human α-thrombin; peptide 2.60E-01 uM): 93.2 and 89.7 and 91.7
- Human alpha thrombin inhibition, slope normalized to DMSO (human α-thrombin; peptide 3.18E-05 uM): 102.0 and 95.9 and 100.7
- Human alpha thrombin inhibition, slope normalized to DMSO (human α-thrombin; peptide 3.26E-02 uM): 97.3 and 93.9 and 91.1
- Human alpha thrombin inhibition, slope normalized to DMSO (human α-thrombin; peptide 3.33E+01 uM): 17.1 and 15.9 (2×)
- Human alpha thrombin inhibition, slope normalized to DMSO (human α-thrombin; peptide 4.07E-03 uM): 99.1 and 96.8 and 105.4
- Human alpha thrombin inhibition, slope normalized to DMSO (human α-thrombin; peptide 4.17E+00 uM): 57.2 and 53.3 and 58.0
- Human alpha thrombin inhibition, slope normalized to DMSO (human α-thrombin; peptide 5.09E-04 uM): 99.5 and 108.3 and 102.0
- Human alpha thrombin inhibition, slope normalized to DMSO (human α-thrombin; peptide 5.21E-01 uM): 89.3 and 86.3 and 89.6
- Human alpha thrombin inhibition, slope normalized to DMSO (human α-thrombin; peptide 6.36E-05 uM): 101.1 and 95.4 and 95.5
- Human alpha thrombin inhibition, slope normalized to DMSO (human α-thrombin; peptide 6.51E-02 uM): 97.1 and 92.8 and 96.9
- Human alpha thrombin inhibition, slope normalized to DMSO (human α-thrombin; peptide 6.67E+01 uM): 14.5 and 13.5 and 16.4
- Human alpha thrombin inhibition, slope normalized to DMSO (human α-thrombin; peptide 8.14E-03 uM): 99.5 and 100.5 and 98.6
- Human alpha thrombin inhibition, slope normalized to DMSO (human α-thrombin; peptide 8.33E+00 uM): 48.2 and 47.8 and 48.5

SMILES: O=C(N[C@H]1CSCc2cccc(n2)CSCCNC(=O)[C@H](Cc2ccccn2)NC(=O)C2(CCCC2)NC1=O)c1ccc(Cl)s1 [compound 28]
- microsomal CLint [1, 4]: 81.1 µL/min/mg
- microsomal CLint [1, 5]: 96.1 µL/min/mg
- microsomal CLint [1, 6]: 78 µL/min/mg
- half-life [1, 7]: 17.1 min
- half-life [1, 8]: 14.4 min
- half-life [1, 9]: 17.8 min
- half-life [1, 10]: 16.4 ± 1.4 min
- microsomal CLint [1, 11]: 85 ± 8 µL/min/mg
- Rat alpha thrombin inhibition, slope normalized to DMSO (rat α-thrombin; [12]): 12.2 (2×) and 11.8
- Rat alpha thrombin inhibition, slope normalized to DMSO (rat α-thrombin; peptide 1.67E+01 uM): 38.3 and 37.3 and 38.4
- Rat alpha thrombin inhibition, slope normalized to DMSO (rat α-thrombin; peptide 2.08E+00 uM): 79.7 and 78.5 and 79.5
- Rat alpha thrombin inhibition, slope normalized to DMSO (rat α-thrombin; peptide 3.33E+01 uM): 24.3 and 23.3 and 23.8
- Rat alpha thrombin inhibition, slope normalized to DMSO (rat α-thrombin; peptide 4.17E+00 uM): 68.5 and 68.7 and 67.7
- Rat alpha thrombin inhibition, slope normalized to DMSO (rat α-thrombin; peptide 6.67E+01 uM): 14.7 and 14.3 and 13.4
- Rat alpha thrombin inhibition, slope normalized to DMSO (rat α-thrombin; peptide 8.33E+00 uM): 56.8 and 54.3 and 57.8
- SGF stability, Residual peptide Average (porcine pepsin): 95.21
- SGF stability, Residual peptide (porcine pepsin): 100.04 and 92.83 and 92.76
- remaining at 8 h (porcine pepsin): 95 ± 4%
- PAMPA permeability: % permeability [2]: 30 ± 7%
- Papp at 50 μM [2]: 2.29 ×10⁻⁶ cm/s
- Permeability% Average [2]: 29.5%
- Permeability% R1 [2]: 35.05%
- Permeability% R3 [2]: 31.19%
- SIF stability, Residual peptide Average (porcine pancreatin): 94.01
- SIF stability, Residual peptide (porcine pancreatin): 86.19 and 87.95 and 107.89
- remaining at 8 h [3]: 94 ± 12%
- Human alpha thrombin inhibition, slope normalized to DMSO (human α-thrombin; peptide 1.02E-03 uM): 100.6 and 102.2 and 99.4
- Human alpha thrombin inhibition, slope normalized to DMSO (human α-thrombin; peptide 1.04E+00 uM): 91.1 and 87.4 and 92.0
- Human alpha thrombin inhibition, slope normalized to DMSO (human α-thrombin; peptide 1.27E-04 uM): 100.4 and 99.0 and 100.8
- Human alpha thrombin inhibition, slope normalized to DMSO (human α-thrombin; peptide 1.30E-01 uM): 103.2 and 98.5 and 101.7
- Human alpha thrombin inhibition, slope normalized to DMSO (human α-thrombin; [12]): 16.8 and 18.7 and 23.0
- Human alpha thrombin inhibition, slope normalized to DMSO (human α-thrombin; peptide 1.63E-02 uM): 79.4 and 98.4 and 92.1
- Human alpha thrombin inhibition, slope normalized to DMSO (human α-thrombin; peptide 1.67E+01 uM): 53.5 and 53.3 and 56.4
- Human alpha thrombin inhibition, slope normalized to DMSO (human α-thrombin; peptide 2.03E-03 uM): 77.9 and 96.7 and 93.1
- Human alpha thrombin inhibition, slope normalized to DMSO (human α-thrombin; peptide 2.08E+00 uM): 88.5 and 72.9 and 90.5
- Human alpha thrombin inhibition, slope normalized to DMSO (human α-thrombin; peptide 2.54E-04 uM): 100.6 and 92.1 and 94.0
- Human alpha thrombin inhibition, slope normalized to DMSO (human α-thrombin; peptide 2.60E-01 uM): 98.5 and 95.3 and 96.4
- Human alpha thrombin inhibition, slope normalized to DMSO (human α-thrombin; peptide 3.18E-05 uM): 102.4 and 100.9 (2×)
- Human alpha thrombin inhibition, slope normalized to DMSO (human α-thrombin; peptide 3.26E-02 uM): 99.5 and 98.1 and 103.6
- Human alpha thrombin inhibition, slope normalized to DMSO (human α-thrombin; peptide 3.33E+01 uM): 35.9 and 38.0 and 41.6
- Human alpha thrombin inhibition, slope normalized to DMSO (human α-thrombin; peptide 4.07E-03 uM): 103.3 and 98.8 and 95.5
- Human alpha thrombin inhibition, slope normalized to DMSO (human α-thrombin; peptide 4.17E+00 uM): 79.3 and 79.5 and 79.0
- Human alpha thrombin inhibition, slope normalized to DMSO (human α-thrombin; peptide 5.09E-04 uM): 102.1 and 100.7 and 91.1
- Human alpha thrombin inhibition, slope normalized to DMSO (human α-thrombin; peptide 5.21E-01 uM): 99.8 and 93.6 and 95.9
- Human alpha thrombin inhibition, slope normalized to DMSO (human α-thrombin; peptide 6.36E-05 uM): 102.4 and 110.3 and 102.0
- Human alpha thrombin inhibition, slope normalized to DMSO (human α-thrombin; peptide 6.51E-02 uM): 102.8 and 95.7 and 101.3
- Human alpha thrombin inhibition, slope normalized to DMSO (human α-thrombin; peptide 6.67E+01 uM): 23.2 and 24.0 and 29.0
- Human alpha thrombin inhibition, slope normalized to DMSO (human α-thrombin; peptide 8.14E-03 uM): 99.1 and 108.8 and 87.5
- Human alpha thrombin inhibition, slope normalized to DMSO (human α-thrombin; peptide 8.33E+00 uM): 72.2 and 85.5 and 69.3
